2 molecules from US20200048305A1, “GLUTATHIONE-CHOLESTEROL DERIVATIVES AS BRAIN TARGETING AGENTS” (South Dakota Board of Regents, priority 2018, published 2020) can be followed below.

The test system of data set [1] is CV-1 cells (monkey kidney cells). The data set can be described thus: In-vitro cytotoxicity by the MTT assay, CV-1 cells. It counts as cell-based. The conditions noted are these: Primates. A general note: Tetrazolium dyes change colour on reduction, which living cells bring about.
Data set [2] can be described thus: Brain-targeting of GUNW-3 DiR micelles, in-vivo whole body fluorescence imaging.
Data set [3] in a line: Chemical stability of GUNW-3 in methanol-ammonium aqueous solution. In kind it is physicochemical. The conditions noted are these: methanol-ammonium aqueous solution (1:1), pH 10.8, 4° C., checked 7 days. The protocol: The stability of GUNW-3 in a methanol-ammonium aqueous solution (1:1) at pH 10.8, the pH GUNW-3 was soluble, was checked continuously for 7 days at 4° C. (FIG. 4). […] However, it started to decompose quickly after 3 days.

Data set [4] deals with NCI-H226 cells (human lung cancer cells). The data set can be described thus: In-vitro cytotoxicity by the MTT assay, NCI-H226 cells. It counts as cell-based.

Molecules are shown by their SMILES.

For `CC(C)CCCC(C)C1CCC2C3CC=C4CC(OCCOCCOC(=O)CCSCC(NC(=O)CCC(N)C(=O)O)C(=O)NCC(=O)O)CC[C@@]4(C)C3CC[C@@]12C` (stereo partly drawn) [GUNW-3], the results for the IC50 in data set [1] and in data set [4] were 650 µM and 470 µM, respectively. Besides, the distribution in liver result in data set [2] (when delivered in micelles) was “low distribution in liver”. For the same molecule, in data set [3], the “stability of GUNW-3” value is reported as “stable in the first 3 days”.
As for `CCCCCCCCCCCCCCCCCCN1/C(=C/C=C/C=C/C=C/C2=[N+](CCCCCCCCCCCCCCCCCC)c3ccccc3C2(C)C)C(C)(C)c2ccccc21.[I-]` [free DiR], the “presence in the spinal cord” value in data set [2] (mice, lateral image at 1 h) is “not observed”. In data set [2] (mice, tail vein injection, 5 μg DiR, lateral images at 1 h), the “brain distribution (lateral images)” value is on record as “no significant brain distribution”.
